# Values of other authors, collected in patent US5744455A (priority 1993, dated 1998).
# Where two headings read alike, the source gives them in different places.
# What was measured:
# [1] = tested on: human tumors; conditions: single agents
# [2] = tested on: doxorubicin cardiotoxicity; conditions: non-cancer-bearing animals
# [3] = tested on: doxorubicin-induced toxicity; conditions: humans and other species
# [4] = tested on: erythrocyte ghost
# [5] = not given; remark: listed apart in the source
# [6] = tested on: heart lesions; conditions: doxorubicin and ICRF 187
# [7] = tested on: chronic daunorubicin cardiotoxicity; conditions: 30 minutes prior to daunorubicin, 12.5 and 25 mg/kg
# [8] = tested on: daunorubicin cardiotoxicity; conditions: ICRF 187 given prior to daunorubicin
# [9] = not given; remark: listed apart in the source
# [10] = tested on: chronic cardiotoxicity induced by Adriamycin; conditions: ICRF 187 12.5 mg/kg 30 minutes prior to Adriamycin 1.0 mg/kg
# [11] = tested on: myocardial lesions; conditions: doxorubicin alone
# [12] = tested on: cardiac glutathione peroxidase
# [13] = not given; remark: listed apart in the source
smiles,measurement,setting,value
"CC(CN1CC(=O)NC(=O)C1)N1CC(=O)NC(=O)C1 (racemic) [ICRF 159, (±)-1,2-bis(3,5-dioxopiperazinyl-1-yl)propane]",anti-tumor effect as single agent,[1],little effect against human tumors
same,solubility,,low solubility
same,doxorubicin cardioprotection,[2],shown promise
Cc1c(C)c2c(c(C)c1O)CCC(C)(CCCC(C)CCCC(C)CCCC(C)C)O2 (stereo not drawn) [Alpha-tocopherol],cardioprotection against doxorubicin-induced toxicity,[3],did not result in significant cardioprotection
"O=C(O)CN(CCN(CC(=O)O)CC(=O)O)CC(=O)O [EDTA, ethylenediaminetetraacetic acid]",erythrocyte ghost destruction by iron-doxorubicin complex,[4],can prevent erythrocyte ghost destruction
"O=c1[nH]cc(F)c(=O)[nH]1 [Fluorouracil, fluorouracil]",oral absorption,[5],very poor absorption
"C[C@@H](CN1CC(=O)NC(=O)C1)N1CC(=O)NC(=O)C1 [ICRF 187, (+)-1,2-bis(3,5-dioxopiperazinyl-1-yl)propane]",dogs with no abnormalities in the hearts,[6],three of six
same,dogs with minimal heart lesions,[6]; six dogs,three
same,anti-tumor effect as single agent,[1],little effect against human tumors
same,solubility,,more water soluble
same,chronic daunorubicin cardiotoxicity,[7],reduced
same,daunorubicin lethality and cardiotoxicity,[8],a reduction of lethality and cardiotoxicity
same,"SGOT and SGPT, vomiting, alopecia",[9]; 1500 mg/m^2,"mild elevations of SGOT (serum glutamate-oxalate transaminase) and SGPT (serum glutamic-pyruvic transaminase), occasional vomiting and some alopecia"
same,predominant adverse effects,[9]; 1500 mg/m^2,leukopenia and thrombocytopenia
same,dose limiting toxicity,"[9]; administered three times daily, every three days, only chemotherapeutic agent",1500 mg/m^2
same,dose limiting toxicity,"[9]; daily, for three consecutive days every three weeks",1500 mg/m^2
same,Adriamycin-induced chronic cardiotoxicity,[10],prevented cardiotoxicity in all treated animals
same,doxorubicin cardioprotection,[2],shown promise
CC(=O)N[C@@H](CS)C(=O)O [N-acetyl cysteine],cardioprotection against doxorubicin-induced toxicity,[3],did not result in significant cardioprotection
COc1cccc2c1C(=O)c1c(O)c3c(c(O)c1C2=O)C[C@@](O)(C(=O)CO)C[C@@H]3O[C@H]1C[C@H](N)[C@H](O)[C@H](C)O1 [doxorubicin],animals with myocardial lesions,[11],eight of nine
same,cardiac glutathione peroxidase activity,[12],directly depresses cardiac glutathione peroxidase activity
same,risk for development of cardiotoxicity,[13]; accumulated doses greater than 450 mg/m^2,greater than 10%
same,alopecia (hair loss),"[13]; human, in vivo",occurs frequently
same,nausea and vomiting,"[13]; human, in vivo",occur regularly
same,peak of myelosuppression,"[13]; human, in vivo",approximately 14±2 days
same,recovery from myelosuppression,"[13]; human, in vivo",15 to 18 days
same,cardiotoxicity on prolonged infusion,"[13]; infusion over extended periods, e.g., 96 hours",small but measurable decrease in cardiotoxicity
same,patients developing unacceptable clinical toxicity,[13]; total cumulative dose 450 mg/m^2,5-10%
